Test results: a compilation of properties of binary mixtures (doi:10.1016/j.molliq.2019.111804)

Experiment: xn = mol fraction of the nth substance listed
Details: 101 kPa

CCCC[n+]1ccn(C)c1.[Cl-] + CO
electrical conductivity [S/m]
Details	x1 = 0.0011	x1 = 0.0022	x1 = 0.0035	x1 = 0.0045	x1 = 0.0056	x1 = 0.0068	x1 = 0.008	x1 = 0.0092	x1 = 0.0104
293.15 K	0.18	0.34	0.48	0.6	0.72	0.83	–	1.02	1.13
303.15 K	0.2	0.38	0.53	–	0.79	0.9	1.01	1.11	1.22
313.15 K	0.23	–	–	0.75	0.87	1.01	1.12	1.23	1.33
323.15 K	0.26	0.48	0.67	–	0.96	1.1	1.24	1.35	1.45

CO + CCCC[n+]1ccn(C)c1.[Cl-]
x2 = 0
Details	electrical conductivity [S/m]
293.15 K	0.003
303.15 K	0.004
313.15 K	0.007
323.15 K	0.011
